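GI50 marks 50% less growth. Definition used: TGI = concentration required for complete inhibition of growth.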
Columns and labels:
Assay in all cases: growth of human tumour cells (NCI), 384-well format
IGROV1 ovarian = system: IGROV1 ovarian
HOP-92 NSCLC = system: HOP-92 NSCLC
RPMI-8226 leukemia = system: RPMI-8226 leukemia
786-0 renal = system: 786-0 renal
PC-3 prostate = system: PC-3 prostate
COLO 205 colon = system: COLO 205 colon
NCI-H522 lung = system: NCI-H522 lung
DU-145 prostate = system: DU-145 prostate
OVCAR-3 ovarian = system: OVCAR-3 ovarian
MDA-MB-468 breast = system: MDA-MB-468 breast
RXF 393 renal = system: RXF 393 renal
NCI-H460 NSCLC = system: NCI-H460 NSCLC
U251 glioblastoma = system: U251 glioblastoma

Q: `O=C1Nc2ccc(I)cc2/C1=C/c1cc(Br)c(O)c(Br)c1` was tested. Which GI50 (IGROV1 ovarian) did it give?
A: 18.6 µM

Q: What about the TGI (IGROV1 ovarian) of the same molecule?
A: 41 µM

Q: And the GI50 (HOP-92 NSCLC)?
A: 15.6 µM

Q: What about the TGI (HOP-92 NSCLC) of the same molecule?
A: 31.9 µM

Q: And the GI50 (RPMI-8226 leukemia)?
A: 6.64 µM

Q: What about the TGI (RPMI-8226 leukemia) of the same molecule?
A: 19.2 µM

Q: What about the GI50 (786-0 renal) of the same molecule?
A: 13.9 µM

Q: What about the TGI (786-0 renal) of the same molecule?
A: 27.4 µM

Q: What about the GI50 (PC-3 prostate) of the same molecule?
A: 13.6 µM

Q: And the TGI (PC-3 prostate)?
A: 27.1 µM

Q: What about the GI50 (COLO 205 colon) of the same molecule?
A: 10.2 µM

Q: What about the TGI (COLO 205 colon) of the same molecule?
A: 23.5 µM

Q: And the GI50 (NCI-H522 lung)?
A: 13.2 µM

Q: What about the TGI (NCI-H522 lung) of the same molecule?
A: 26.1 µM

Q: And the GI50 (DU-145 prostate)?
A: 22.9 µM

Q: What about the TGI (DU-145 prostate) of the same molecule?
A: 88.9 µM

Q: And the GI50 (OVCAR-3 ovarian)?
A: 6.34 µM

Q: And the TGI (OVCAR-3 ovarian)?
A: 19.2 µM

Q: And the GI50 (MDA-MB-468 breast)?
A: 11.7 µM

Q: What about the TGI (MDA-MB-468 breast) of the same molecule?
A: 25.2 µM

Q: What about the GI50 (RXF 393 renal) of the same molecule?
A: 12.6 µM

Q: What about the TGI (RXF 393 renal) of the same molecule?
A: 25.5 µM

Q: What about the GI50 (NCI-H460 NSCLC) of the same molecule?
A: 14.9 µM

Q: And the TGI (NCI-H460 NSCLC)?
A: 28.6 µM

Q: What about the GI50 (U251 glioblastoma) of the same molecule?
A: 11.7 µM

Q: What about the TGI (U251 glioblastoma) of the same molecule?
A: 24.3 µM
